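All cell lines were grown in 96-well plates and treated with compound for 48 hours. Abbreviation: GI50, concentration required for 50% inhibition of growth.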 Active and inactive are the calls of the source. No stated cut-off is given here; in the data, active = GI50 up to about 1.1 µM and inactive = higher.
Tests used:
Test in all cases: growth of human tumour cells (NCI), 48 h
NCI-H460 = test system: NCI-H460
DU-145 = test system: DU-145
OVCAR-4 = test system: OVCAR-4
OVCAR-5 = test system: OVCAR-5
OVCAR-8 = test system: OVCAR-8
NCI-H522 = test system: NCI-H522
NCI-H226 = test system: NCI-H226
T47D = test system: T47D
786-0 = test system: 786-0
HT-29 = test system: HT-29
BT-549 = test system: BT-549
SK-MEL-2 = test system: SK-MEL-2
MDA-N = test system: MDA-N
SNB-19 = test system: SNB-19
NCI-H23 = test system: NCI-H23
HOP-62 = test system: HOP-62
EKVX = test system: EKVX
M14 = test system: M14
HCC 2998 = test system: HCC 2998

| SMILES | GI50 (NCI-H460) | GI50 (DU-145) | GI50 (OVCAR-4) | GI50 (OVCAR-5) | GI50 (OVCAR-8) | GI50 (NCI-H522) | GI50 (NCI-H226) | GI50 (T47D) | GI50 (786-0) | GI50 (HT-29) | GI50 (BT-549) | GI50 (SK-MEL-2) | GI50 (MDA-N) | GI50 (SNB-19) | GI50 (NCI-H23) | GI50 (HOP-62) | GI50 (EKVX) | GI50 (M14) | GI50 (HCC 2998) |
| --- | --- | --- | --- | --- | --- | --- | --- | --- | --- | --- | --- | --- | --- | --- | --- | --- | --- | --- | --- |
| COc1cc2c(cc1OC)C13CCN4C=C5CCOC6CC(=O)N2C1C6C5CC43 (centres undefined) | > 100 µM (inactive) | > 100 µM (inactive) | > 100 µM (inactive) | > 100 µM (inactive) | > 100 µM (inactive) | > 100 µM (inactive) | > 100 µM (inactive) | > 100 µM (inactive) | > 100 µM (inactive) | > 100 µM (inactive) | > 100 µM (inactive) | > 100 µM (inactive) | > 100 µM (inactive) | > 100 µM (inactive) | > 100 µM (inactive) | > 100 µM (inactive) | > 100 µM (inactive) | > 100 µM (inactive) |  |
| CC(C)(C)[Si](C)(C)OCC1OC(n2ccc(N)nc2=O)C(O[Si](C)(C)C(C)(C)C)C1O[Si](C)(C)C(C)(C)C (centres undefined) | 1.9 µM (inactive) | 9.59 µM (inactive) | 0.0356 µM (active) | 1.63 µM (inactive) | 2.33 µM (inactive) | 1.83 µM (inactive) | 1.36 µM (inactive) | 2.7 µM (inactive) | 1.59 µM (inactive) | 1.56 µM (inactive) | 1.62 µM (inactive) | 2.07 µM (inactive) | 3.89 µM (inactive) | 3.24 µM (inactive) |  | 2.06 µM (inactive) | 3.22 µM (inactive) | 1.8 µM (inactive) |  |
| O=C(Nc1cccc(F)c1)c1cc2ccc(O)cc2o/c1=N\c1ccccc1F | 3.15 µM (inactive) | 4.28 µM (inactive) | 3.56 µM (inactive) | 17.2 µM (inactive) | 2.51 µM (inactive) | 2.09 µM (inactive) |  | 3.38 µM (inactive) | 4.99 µM (inactive) | 21.2 µM (inactive) | 2.13 µM (inactive) | 4.8 µM (inactive) | 4.82 µM (inactive) | 5.31 µM (inactive) | 2.18 µM (inactive) | 8.89 µM (inactive) | 2.18 µM (inactive) | 5.32 µM (inactive) | 9.59 µM (inactive) |
| CC(=O)OCC1C(C(C)OC(C)=O)CCC2C1CCC1(C)C(OC(C)=O)CCC21 (centres undefined) | 16.9 µM (inactive) | 83.9 µM (inactive) | 19.8 µM (inactive) | 54.6 µM (inactive) | 19.7 µM (inactive) | 20.6 µM (inactive) | 16.6 µM (inactive) | 24.8 µM (inactive) | 22.6 µM (inactive) | 16 µM (inactive) | 11.6 µM (inactive) |  | 18.6 µM (inactive) | 20.4 µM (inactive) | 24.1 µM (inactive) | 21.5 µM (inactive) | 15.6 µM (inactive) | 17.1 µM (inactive) | 18.8 µM (inactive) |
| C/C(=N\O)c1cccc(Nc2nc3ccccc3c3occc23)c1 | 4.35 µM (inactive) | 13.2 µM (inactive) | 12.4 µM (inactive) | 14.9 µM (inactive) | 16.6 µM (inactive) |  | 1.72 µM (inactive) | 7.73 µM (inactive) | 12.7 µM (inactive) | 4.32 µM (inactive) | 13.1 µM (inactive) |  | 13.1 µM (inactive) | 16.9 µM (inactive) |  | 18.3 µM (inactive) | 12.7 µM (inactive) | 12.7 µM (inactive) | 14.6 µM (inactive) |
| C[N+](C)(CCNc1ccc(NCC[N+](C)(C)Cc2ccc([N+](=O)[O-])cc2)c2c1C(=O)c1c(O)ccc(O)c1C2=O)Cc1ccc([N+](=O)[O-])cc1 | 3.2 µM (inactive) | 25.5 µM (inactive) | > 50 µM (inactive) | > 50 µM (inactive) | > 50 µM (inactive) | > 50 µM (inactive) |  | > 50 µM (inactive) | 8.41 µM (inactive) | 17.7 µM (inactive) | 26.5 µM (inactive) | > 50 µM (inactive) | 46.7 µM (inactive) |  | > 50 µM (inactive) | > 50 µM (inactive) | > 50 µM (inactive) | > 50 µM (inactive) | > 50 µM (inactive) |
